Source: BigSolDB 2.1

COC(=O)NCCCCCCNC(=O)OC
solubility (mole fraction) (in dimethyl carbonate, 298.15 K): 0.00596 | solubility (mole fraction) (in dimethyl carbonate, 300.15 K): 0.00689 | solubility (mole fraction) (in dimethyl carbonate, 303.15 K): 0.00839 | solubility (mole fraction) (in dimethyl carbonate, 308.15 K): 0.0117 | solubility (mole fraction) (in dimethyl carbonate, 313.15 K): 0.0161 | solubility (mole fraction) (in dimethyl carbonate, 318.15 K): 0.0207 | solubility (mole fraction) (in dimethyl carbonate, 323.15 K): 0.026 | solubility (mole fraction) (in dimethyl carbonate, 328.15 K): 0.0338 | solubility (mole fraction) (in dimethyl carbonate, 333.15 K): 0.042 | solubility (mole fraction) (in ethanol, 298.15 K): 0.0155 | solubility (mole fraction) (in ethanol, 300.15 K): 0.0179 | solubility (mole fraction) (in ethanol, 303.15 K): 0.0205 | solubility (mole fraction) (in ethanol, 308.15 K): 0.0279 | solubility (mole fraction) (in ethanol, 313.15 K): 0.0355 | solubility (mole fraction) (in ethanol, 318.15 K): 0.0463 | solubility (mole fraction) (in ethanol, 323.15 K): 0.0625 | solubility (mole fraction) (in ethanol, 328.15 K): 0.0769 | solubility (mole fraction) (in ethanol, 333.15 K): 0.0987 | solubility (mole fraction) (in ethyl acetate, 298.15 K): 0.00814 | solubility (mole fraction) (in ethyl acetate, 300.15 K): 0.00976 | solubility (mole fraction) (in ethyl acetate, 303.15 K): 0.0124 | solubility (mole fraction) (in ethyl acetate, 308.15 K): 0.0176 | solubility (mole fraction) (in ethyl acetate, 313.15 K): 0.0233 | solubility (mole fraction) (in ethyl acetate, 318.15 K): 0.029 | solubility (mole fraction) (in ethyl acetate, 323.15 K): 0.0369 | solubility (mole fraction) (in ethyl acetate, 328.15 K): 0.0445 | solubility (mole fraction) (in ethyl acetate, 333.15 K): 0.0536 | solubility (mole fraction) (in toluene, 298.15 K): 0.00731 | solubility (mole fraction) (in toluene, 300.15 K): 0.00912 | solubility (mole fraction) (in toluene, 303.15 K): 0.0111 | solubility (mole fraction) (in toluene, 308.15 K): 0.0167 | solubility (mole fraction) (in toluene, 313.15 K): 0.0232 | solubility (mole fraction) (in toluene, 318.15 K): 0.0353 | solubility (mole fraction) (in toluene, 323.15 K): 0.0462 | solubility (mole fraction) (in toluene, 328.15 K): 0.0614 | solubility (mole fraction) (in toluene, 333.15 K): 0.0824 | solubility (mole fraction) (in water, 298.15 K): 6.21e-05 | solubility (mole fraction) (in water, 300.15 K): 6.92e-05 | solubility (mole fraction) (in water, 303.15 K): 7.91e-05 | solubility (mole fraction) (in water, 308.15 K): 0.000106 | solubility (mole fraction) (in water, 313.15 K): 0.000146 | solubility (mole fraction) (in water, 318.15 K): 0.000185 | solubility (mole fraction) (in water, 323.15 K): 0.00025 | solubility (mole fraction) (in water, 328.15 K): 0.000339 | solubility (mole fraction) (in water, 333.15 K): 0.000439
